Measurements taken from patent US20260028354A1, “TETRAHYDRONAPHTHALENE DERIVATIVES AS ESTROGEN RECEPTOR DEGRADERS” (REGENT OF THE UNIVERSITY OF MICHIGAN, priority 2022, published 2026).

Assay: Western blot analysis for "B" compounds
Assay type: cell-based
Settings: read-out: Traditional Western Degradation Potency (DC50)
In short: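 Compound-treated cells lysed in RIPA buffer with protease inhibitors; equal protein (BCA) run on 10% SDS-PAGE, transferred to PVDF and probed with target antibodies. Band intensities quantified by densitometry and normalized to GAPDH.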

| DC50 [nM] | SMILES |
| --- | --- |
| 10 to 100 | O=C1CCC(N2Cc3cc4c(cc3C2=O)CN(C2CCN(CC3CN(c5ccc([C@@H]6c7ccc(O)cc7CC[C@@H]6c6ccc(F)cc6)cc5)C3)CC2)C4)C(=O)N1 (stereo partly drawn) [Compound B72, 3-(6-(1-((1-(4-((1R,2S)-2-(4-fluorophenyl)-6-hydroxy-1,2,3,4-tetrahydronaphthalen-1-yl)phenyl)azetidin-3-yl)methyl)piperidin-4-yl)-1-oxo-3,5,6,7-tetrahydropyrrolo[3,4-f]isoindol-2(1H)-yl)pipcridinc-2,6-dionc] |
| > 100 | O=C1CCC(N2C(=O)c3cc4c(cc3C2=O)CN(Cc2cnc(N3CC(Oc5ccc([C@@H]6c7ccc(O)cc7CC[C@@H]6c6ccccc6)cc5)C3)nc2)C4)C(=O)N1 (stereo partly drawn) [Compound B92, 2-(2,6-dioxopiperidin-3-yl)-6-((2-(3-(4-((1R,2S)-6-hydroxy-2-phenyl-1,2,3,4-tetrahydronaphthalen-1-yl)phenoxy)azetidin-1-yl)pyrimidin-5-yl)methyl)-6,7-dihydropyrrolo[3,4-f]isoindole-1,3(2H,5H)-dione] |
| 10 to 100 | CN(C1CCC(C(=O)N2Cc3cc4c(cc3C2)C(=O)N(C2CCC(=O)NC2=O)C4=O)CC1)C1CCN(c2ccc([C@@H]3c4ccc(O)cc4CC[C@@H]3c3ccccc3)cc2)CC1 (stereo partly drawn) [Compound B200, 2-(2,6-dioxopiperidin-3-yl)-6-(4-((1-(4-((1R,2S)-6-hydroxy-2-phenyl-1,2,3,4-tetrahydronaphthalen-1-yl)phenyl)piperidin-4-yl)(methyl)amino)cyclohexane-1-carbonyl)-6,7-dihydropyrrolo[3,4-f]isoindole-1,3(2H,5H)-dione] |
| > 100 | O=C1CCC(N2C(=O)c3cc4c(cc3C2=O)CN(CC(=O)N2CCC3(CC2)CCN(c2ccc([C@@H]5c6ccc(O)cc6CC[C@@H]5c5ccc(F)cc5)cn2)CC3)C4)C(=O)N1 (stereo partly drawn) [Compound B54, 2-(2,6-dioxopiperidin-3-yl)-6-(2-(9-(5-((1S,2S)-2-(4-fluorophenyl)-6-hydroxy-1,2,3,4-tetrahydronaphthalen-1-yl)pyridin-2-yl)-3,9-diazaspiro[5.5]undecan-3-yl)-2-oxoethyl)-6,7-dihydropyrrolo[3,4-f]isoindole-1,3(2H,5H)-dione] |
| 10 to 100 | CN(C1CCC(C(=O)N2Cc3cc4c(cc3C2)C(=O)N(C2CCC(=O)NC2=O)C4)CC1)C1CCN(c2ccc([C@@H]3c4ccc(O)cc4CC[C@@H]3c3ccccc3)cc2)CC1 (stereo partly drawn) [Compound B201, 3-(6-(4-((1-(4-((1R,2S)-6-hydroxy-2-phenyl-1,2,3,4-tetrahydronaphthalen-1-yl)phenyl)piperidin-4-yl)(methyl)amino)cyclohexane-1-carbonyl)-1-oxo-3,5,6,7-tetrahydropyrrolo[3,4-f]isoindol-2(1H)-yl)piperidine-2,6-dione] |
| > 100 | O=C1CCC(N2C(=O)c3cc4c(cc3C2=O)CN(CC2(F)CN(C(=O)C3CCN(c5ccc([C@@H]6c7ccc(O)cc7CC[C@@H]6c6ccccc6)cc5)CC3)C2)C4)C(=O)N1 (stereo partly drawn) [Compound B268, 2-(2,6-dioxopiperidin-3-yl)-6-((3-fluoro-1-(1-(4-((1R,2S)-6-hydroxy-2-phenyl-1,2,3,4-tetrahydronaphthalen-1-yl)phenyl)piperidine-4-carbonyl)azetidin-3-yl)methyl)-6,7-dihydropyrrolo[3,4-f]isoindole-1,3(2H,5H)-dione] |
| > 100 | O=C1CCC(N2Cc3cc4c(cc3C2=O)CN(C(=O)C2CCN(CC3CCN(c5ccc([C@@H]6c7ccc(O)cc7CC[C@@H]6c6ccccc6)cc5)CC3)CC2)C4)C(=O)N1 (stereo partly drawn) [Compound B199, 3-(6-(1-((1-(4-((1R,2S)-6-hydroxy-2-phenyl-1,2,3,4-tetrahydronaphthalen-1-yl)phenyl)piperidin-4-yl)methyl)piperidine-4-carbonyl)-1-oxo-3,5,6,7-tetrahydropyrrolo[3,4-f]isoindol-2(1H)-yl)piperidine-2,6-dione] |
